Test results as given in patent US5593988A, “Therapeutic agent for osteoporosis and diazepine compound” (Yoshitomi Pharmaceutical Industries, Ltd., priority 1991, dated 1997).

The molecules below were run on bone resorption (parietal bone) (assay: Bone resorption-inhibitory activity (45Ca release from newborn mouse parietal bone, hPTH (1-34) stimulated, method of Raisz)). Conditions: 5 μM, Table 20, average of four pairs, read-out: bone resorption-inhibitory action, % against control.
Format: cell-based, ICR mouse
Text: The method for determining the bone resorption-inhibitory activity of the Compound (I) and the results are shown in the following.
Bone resorption-inhibitory activity
The determination of the bone resorption-inhibitory activity basically followed the method of Raisz [J. Clin. Invest., vol. 44, pp. 103-116 (1965)].
A 1-2 days old new born ICR mouse was intraperitoneally administered with 1.5μ Ci ^45 Ca (CaCl2 solution of isotope of calcium) and parietal bone was asceptically removed the next day. The parietal bone was split into two along the central sature line and one of them was used as a control and the other was used for the experiment. The bone was preincubated in 0.5 ml of a BGJb medium (Fitton-Jackson modification, GIBCO Laboratories, U.S.A.) added with the test compound to a concentration of 5 μM or 20 μM and bovine serum albumin (1 mg/ml) at 37° C. for 2 days, and further incubated in the aforementioned medium containing 50 nM hPTH (1-34) for 3 days. After the incubation, the radioactivity of ^45 Ca in the medium and in the bone was measured and the ratio (%) of ^45 Ca released from the bone into the medium was calculated. [formula]
Using the bone obtained from the same mouse and treated in the same manner without the test compound as a control, the ratio (%) against the control was calculated according to the following equation. [formula]
The average of these values obtained from four pairs from each group was calculated.
For CCc1cc2c(s1)-n1c(C)nnc1C(NC(=O)Nc1cccc(C)c1)N=C2c1ccccc1 (stereo not shown) [compound 88], the inhibition at 5 µM was 33.8%.
CCc1cc2c(s1)-n1c(C)nnc1C(NC(=O)Nc1ccc(Cl)cc1)N=C2c1ccc(Cl)cc1 (stereo not shown) [compound 75] gave an inhibition at 5 µM of 47.7%.

Same assay, conditions: 20 μM, Table 20, average of four pairs, read-out: bone resorption-inhibitory action, % against control
CCCCCCCCCCCc1nnc2n1-c1sc(CC)cc1C(c1ccc(OCCN(C)C)cc1)OC2 (stereo not shown) [compound 354] showed an inhibition at 20 µM of 23.2%.
CCCCCCCCc1ccc(CCc2cc3c(s2)-n2c(C)nnc2CN=C3c2ccccc2Cl)cc1 [compound 29] gave an inhibition at 20 µM of 16.4%.
Work on CCCCCCCCCCCc1nnc2n1-c1sc(CC)cc1C(c1ccccc1)OC2 (stereo not shown) [compound 304] yielded an inhibition at 20 µM of 28.6%.
Work on CCc1cc2c(s1)-n1c(C)nnc1C(NC(=O)c1ccccc1)N=C2c1ccccc1Cl (stereo not shown) [compound 50] yielded an inhibition at 20 µM of 26.4%.
CCCC1N=C(c2ccc(Cl)cc2)c2cc(CCc3ccc(CC(C)C)cc3)sc2-n2c(C)nnc21 (stereo not shown) [compound 42] was tested, and the inhibition at 20 µM was 16.9%.

Same assay, conditions: read-out: bone resorption-inhibitory action, % against control
Cc1cccc(NC(=O)NC2N=C(c3cccs3)c3ccccc3-n3c(C)nnc32)c1 (stereo not shown) [compound 521] was tested, and the inhibition at 20 µM was 29.6%.
For CC(C)Cc1ccc(CCc2nnc3n2-c2ccccc2C(c2ccc(Cl)cc2)=NC3)cc1 [compound 517], the inhibition at 20 µM was 47.3%.
CCCCCCCCCCc1ccc2c(c1)C(c1ccccc1)=NC(C)c1nnc(C)n1-2 (stereo not shown) [compound 519] showed an inhibition at 20 µM of 21.1%.
Cc1nnc2n1-c1sc(CCC(=O)N3CCOCC3)cc1C(c1ccccc1Cl)=NC2C (stereo not shown) [compound 38] showed an inhibition at 20 µM of 46%.
For Cc1nnc2n1-c1ccccc1C(c1ccc(Cl)cc1)=NC2Cc1c[nH]c2ccccc12 (stereo not shown) [compound 508], the inhibition at 20 µM was 48.1%.
With Cc1nnc2n1-c1ccc(Cl)cc1C(c1ccccc1)=NC2 [compound 69] the inhibition at 20 µM was 21.9%.
CCCCCCc1cc2c(s1)NC(=O)CN=C2c1ccccc1Cl [compound 60] showed an inhibition at 20 µM of 58.6%.
CCCCCCCCCCCc1nnc2n1-c1ccccc1C(c1ccc(Cl)cc1)=NC2 [compound 513] gave an inhibition at 20 µM of 43.3%.
Work on Cc1nnc2n1-c1ccccc1C(c1ccc(Cl)cc1)=NC2NC(=O)Nc1ccccn1 (stereo not shown) [compound 522] yielded an inhibition at 20 µM of 32.8%.
Work on Cc1nnc2n1-c1ccccc1C(c1ccc(Cl)cc1)=NC2NC(=O)C(=O)Nc1ccccc1 (stereo not shown) [compound 530] yielded an inhibition at 20 µM of 28.2%.
Work on Cc1nnc2n1-c1ccc(Cl)cc1C(c1ccccc1Cl)=NC2 [compound 68] yielded an inhibition at 20 µM of 57.5%.
Molecule CCc1cc2c(s1)-n1c(C)nnc1C(OC(=O)Nc1cccc(C)c1)N=C2c1ccc(OC)cc1 (stereo not shown) [compound 257] has an inhibition at 20 µM of 27.1%.
